Patent publication US6982142B2, “Methods for screening therapeutically effective agents” (John Wayne Cancer Institute, priority 1997, dated 2006)
Structures can show the parent of a compound that is named as a salt.

Columns and labels:
KB-V-1 cells [1] = experiment: Cytotoxicity in vinblastine resistant epidermoid carcinoma cells (estimated, not measured); type: cell-based, human; conditions: PSC 833 5.0 μM, 24 h
Experimental: To determine whether the influence of PSC 833 on ceramide metabolism was restricted to certain cell types, a vinblastine resistant epidermoid carcinoma, KB-V-1, was tested. In KB-V-1 cells exposed to 5.0 μM PSC 833 for 24 h, cellular levels of tritiated ceramide ([^3H]palmitic acid labeling) increased 8.7-fold over untreated cells. This is 4-fold higher than the ceramide increase elicited by PSC 833 in MCF-7-AdrR cells (FIG. 7). The increase in ceramide in KB-V-1 cells was accompanied by cytotoxicity, which while not measured was estimated at 80% cell death. Additionally, the PSC 833-induced increase in [^3H]ceramide was not accompanied by decreases in [^3H]sphingomyelin, but rather a slight increase in radiolabeled sphingomyelin (33% over the control).

KB-V-1 cells [2] = experiment: Ceramide and sphingomyelin metabolism ([3H]palmitic acid labeling) in vinblastine resistant epidermoid carcinoma cells; type: cell-based, human; conditions: PSC 833 5.0 μM
Experimental: (§1) Cells. Experiments were conducted using the human MDR breast cancer cell line, MCF-7 AdrR (adriamycin resistant) provided by Drs. Kenneth H. Cowan and Merrill E. Goldsmith, National Cancer Institute. Cells were grown in RPMI-1640 medium containing 10% FBS (fetal bovine serum) and antibiotics as previously described (Lavie, 1997) and cultures were maintained in a humidified 6.5% CO2 atmosphere incubator. Trypsin (0.05%) and EDTA (0.5 mM) were used for subculture. Plastic tissue cultureware, was from Costar (96-well plates) and Corning (6-well plates, 6-cm dishes, T-75 flasks). Limited experiments were conducted using the human MDR epidermoid carcinoma cell line, KBV-1, provided by Dr. Michael M. Gottesman, National Cancer Institute. Cells were maintained as described (Lavie, 1996). Vinblastine was eliminated from the culture medium during the experiments.
Cell Radiolabeling and Lipid/Glycolipid Analysis. To follow lipid metabolism, cells were grown in the presence of tritiated ceramide precursors, L-[^3H]serine (20 Ci/mmol) (American Radiolabeled Chemicals, Inc., St. Louis), and [9, 10-^3H]palmitic acid (50 Ci/mmol) (DuPont NEN). […] After radiolabeling, 0.1 ml aliquots of medium were removed and analyzed by LSC (Lavie, 1997), in order to determine cellular uptake of the tritiated compounds. […]
Radioactivity in glucosylceramide was analyzed by TLC resolution of total lipids (Silica Gel G) using a solvent system containing chloroform/methanol/ammonium hydroxide (80:20:2, v/v/v). Migration of glucosylceramide on TLC was compared with that of commercial standard (glucocerebrosides, Gaucher's spleen, Matreya, Inc., Pleasant Gap, Pa.), and lipid spots, after iodine vapor visualization, were scraped for tritium quantitation by LSC (Lavie, 1997; Lavie, 1996). […] After iodine visualization of lipids, areas of the chromatogram corresponding to ceramide and sphingomyelin were scraped into minivials containing 0.5 ml water followed by 4.5 ml EcoLume (ICN, Costa Mesa, Calif.), and samples were analyzed for tritium by liquid scintillation spectrometry. […]

MCF-7-wt cells = experiment: Cytotoxicity assay (Promega) in chemosensitive wild-type breast cancer cells; type: cell-based, human; conditions: PSC 833 10 μM, four days
MCF-7-AdrR cells [3] = system: MCF-7-AdrR cells
MCF-7-AdrR cells [4] = experiment: Cell radiolabeling and TLC/LSC analysis of ceramide, glucosylceramide and sphingomyelin in MDR breast cancer cells; type: cell-based, human; conditions: for ceramide level, increase over control: adriamycin 2.5, PSC 833 5.0 μM, tamoxifen 5.0 μM alone or combined, 24 h, [3H]palmitic acid
Experimental: as §1
Cell Radiolabeling and Lipid/Glycolipid Analysis. To follow lipid metabolism, cells were grown in the presence of tritiated ceramide precursors, L-[^3H]serine (20 Ci/mmol) (American Radiolabeled Chemicals, Inc., St. Louis), and [9, 10-^3H]palmitic acid (50 Ci/mmol) (DuPont NEN). Labeling media were prepared by adding microliter amounts of tritiated compounds (supplied in ethanol or sterile water) to medium containing only 5% FBS. After radiolabeling, 0.1 ml aliquots of medium were removed and analyzed by LSC (Lavie, 1997), in order to determine cellular uptake of the tritiated compounds. Cell monolayers were then rinsed twice with cold phosphate-buffered saline. Ice cold methanol containing 2% acetic acid was added, and cells were scraped free of the substratum (plastic scraper) for lipid extraction using chloroform and water in 1-dram glass vials as described (Lavie, 1997; Lavie, 1996; Bligh and Dyer, 1959). After centrifugation, the resulting organic lower phase of the biphasic extraction was withdrawn, transferred to a glass vial, and evaporated to dryness under a stream of nitrogen.
Radioactivity in glucosylceramide was analyzed by TLC resolution of total lipids (Silica Gel G) using a solvent system containing chloroform/methanol/ammonium hydroxide (80:20:2, v/v/v). Migration of glucosylceramide on TLC was compared with that of commercial standard (glucocerebrosides, Gaucher's spleen, Matreya, Inc., Pleasant Gap, Pa.), and lipid spots, after iodine vapor visualization, were scraped for tritium quantitation by LSC (Lavie, 1997; Lavie, 1996). […] Ceramide and sphingomyelin commercial standards (brain-derived) were from Avanti Polar Lipids, Alabaster, Ala. After iodine visualization of lipids, areas of the chromatogram corresponding to ceramide and sphingomyelin were scraped into minivials containing 0.5 ml water followed by 4.5 ml EcoLume (ICN, Costa Mesa, Calif.), and samples were analyzed for tritium by liquid scintillation spectrometry. Alternative analysis of ceramide consisted of subjecting an aliquot of the total cell lipid extract to mild alkaline hydrolysis (0.1 N KOH in methanol, 1 h at 37° C.) followed by re-extraction (Lavie, 1997). […] The same can also be done without tritium by simply applying 100-200 μg total cell lipid to TLC plates and developing them in the appropriate solvent, then spraying them with 30% H2SO4, charring the plate in an oven at 180° C. for 20 min, and measuring lipid mass by densitometry.

MCF-7 cells [5] = experiment: cells; type: cell-based; conditions: Homo sapiens, MCF7, 96 h, read-out: EC50 (cytotoxicity)
Experimental: Cytotoxicity Assay. The assay was performed as previously described (Lavie, 1997). […] Cultures were incubated at 37° C. for 24 hr before addition of drug. Drugs were added in FBS-free medium (0.1 ml), and cells were cultured at 37° C. for the indicated periods. Drug cytotoxicity was determined using the Promega 96 Aqueous cell proliferation assay kit. Absorbance at 490 nm was recorded using an ELISA reader (Molecular Devices, San Diego, Calif.).
Adriamycin was used to assess the influence of GCS transfection on cellular response to anthracyclines. After pretreatment with doxycycline for two days, MCF-7/GCS cells were incubated with increasing concentrations of adriamycin for four days. […] It was observed that MCF-7/GCS cells were resistant to ceramide toxicity as well. […] However, the EC50 in the TC group was nearly identical with that of MCF-7 cells, there being no statistical difference between the two groups (FIG. 14C).

MCF-7 wild-type cells [6] = experiment: Ceramide and sphingomyelin formation ([3H]palmitic acid, TLC) in wild-type breast cancer cells; type: cell-based, human; conditions: doxorubicin 1.7 μM
Experimental: (§2) The effect of anthracyclines such as doxorubicin on ceramide formation is illustrated in FIG. 10A. Cells were seeded in 6-well plates (80,000 cells/well) in 2.0 ml medium containing 5% FBS. After 2 days of growth, cells were given doxorubicin (1.7 μM) and [^3H]palmitic acid (2.0 μCi/well) for 72 hr. Total cell lipids were extracted (Bligh and Dyer, 1959) and analyzed by applying 150,000 cpm (for ceramide analysis) and 50,000 cpm (for sphingomyelin analysis) from each sample to the origin of a Silica Gel G TLC plate and resolving [^3H]ceramide and [^3H]sphingomyelin as described in the Methods section. […] FIG. 10A illustrates that exposure of wild-type human breast cancer cells to doxorubicin (1.7 μM) caused, after 72 hours, a 6-fold increase in ceramide. […] Control and doxorubicin treated (1.7 μM) cells were grown in 10 cm culture dishes for 72 hr. Cells were harvested by trypsin-EDTA, centrifuged then incubated with digestion buffer (100 mM NaCl, 25 mM EDTA, 10 mM Tris-HCI, 0.5% SDS, 0.3 mg/ml Proteinase K, pH 8.0) at 45° C. for 18 hrs. DNA was extracted with phenol/chloroform/isoamyl alcohol (25:24:1, v/v/v) and precipitated in 1/3 volume 7.5 M ammonium acetate and 2 volume2 100% ethanol at −20° C. overnight. […] Re-extracted DNA (15 μg) was analyzed by electrophoresis on a 2% agarose gel in TAE buffer (40 mM Tris-acetate, 1.0 mM EDTA, pH 8.3). […]

MCF-7 wild-type cells [7] = experiment: Apoptosis by oligonucleosomal DNA fragmentation (gel electrophoresis) in wild-type cells; type: cell-based, human; conditions: doxorubicin 1.7 μM, 72 hr
Experimental: as §2

MCF-7-AdrR cells [8] = experiment: cells; conditions: Homo sapiens, 72 h, read-out: growth inhibition
MCF-7 cells [9] = experiment: Analysis of ceramide and glucosylceramide ([3H]palmitic acid, TLC) in parental cells; type: cell-based, human; conditions: adriamycin
Experimental: (§3) Analysis of Ceramide and Glucosylceramide. Analyses were performed as previously described (Lavie, 1997). Cellular lipids were radiolabeled by incubating cells with [^3H]palmitic acid (2.5 μCi/ml culture medium) for 24 hr. After removal of medium, cells were rinsed twice with PBS (pH 7.4), and lipids were extracted (Lavie, 1997). After nitrogen evaporation of solvents, total lipids were resuspended in 100 μl of chloroform /methanol (1:1, v/v), and aliquots were applied to TLC plates. Ceramide was resolved using solvent system I, which contained chloroform/acetic acid (90:10, v/v). […] Commercial lipid standards were co-chromatographed. After development, lipids were visualized by iodine vapor staining, and areas of interest were scraped into 0.5 ml water. EcoLume counting fluid (4.5 ml) was added, the samples were mixed, and radioactivity was quantitated by liquid scintillation spectrometry.
(§4) To further define the mechanism of drug resistance in MCF-7/GCS cells, cells were challenged with adriamycin and the metabolism of ceramide was evaluated (FIGS. 16A-16B). […] After 24 and 48 hr with adriamycin, GC levels in the GCS-transfected cells increased 1.4- and 2.1-fold, respectively.

MCF-7/GCS cells = experiment: Analysis of ceramide and glucosylceramide ([3H]palmitic acid, TLC) in GCS-transfected cells; type: cell-based, human; conditions: adriamycin
Experimental: as §3, §4

[10] = increasing concentration, 60 min then [3H]palmitic acid for 23 h

C/C=C/C[C@@H](C)C(=O)[C@H]1C(=O)N[C@@H](C(C)C)C(=O)N(C)CC(=O)N(C)[C@@H](CC(C)C)C(=O)N[C@@H](C(C)C)C(=O)N(C)[C@@H](CC(C)C)C(=O)N[C@@H](C)C(=O)N[C@H](C)C(=O)N(C)[C@@H](CC(C)C)C(=O)N(C)[C@@H](CC(C)C)C(=O)N(C)[C@@H](C(C)C)C(=O)N1C [PSC 833, ([3′-Keto-Bmt1]-Val2)-cyclosporine]
cell death (not measured, estimated) (KB-V-1 cells [1]): ~80% | ceramide increase in KB-V-1 relative to increase in MCF-7-AdrR cells (KB-V-1 cells [2]): 4 fold | radiolabeled sphingomyelin, increase over the control (KB-V-1 cells [2]; 24 h): 33% | tritiated ceramide level, increase over untreated cells (KB-V-1 cells [2]; 24 h): 8.7 fold | reduction in cell survival (MCF-7-wt cells): 80% | cell kill (MCF-7-AdrR cells [3]; PSC 833 0.5 μM, 5-days): 10% | reduction in cell survival (MCF-7-AdrR cells [3]; PSC 833 10 μM, four days): 35% | cell viability (MCF-7-AdrR cells [3]; adriamycin 2.5 μM, PSC 833 5.0, tamoxifen 5.0 μM alone or combined, 3-days): without influence | concentration at which activation of glucosylceramide formation was apparent (MCF-7-AdrR cells [4]; 60 min then [3H]palmitic acid for 23 h): 0.1 µM | glucosylceramide level (TLC autoradiography) (MCF-7-AdrR cells [4]; PSC 833 2.5 μM, overnight, [3H]serine): increased markedly | sphingomyelin, % of control (MCF-7-AdrR cells [4]; PSC 833 5.0 μM, 2 h): 150 % of control | time at which activation of cellular ceramide formation was discernible (MCF-7-AdrR cells [4]; PSC 833 5.0 μM, exposure 15 min-4 h): 30 min | ceramide level, increase over control (MCF-7-AdrR cells [4]): 4.8 fold | cellular ceramide formation, dose-response (MCF-7-AdrR cells [4]; [10]): elicited an increase in cellular ceramide formation | glucosylceramide formation, dose-response (MCF-7-AdrR cells [4]; [10]): resulted in glucosylceramide synthesis

COc1cccc2c1C(=O)c1c(O)c3c(c(O)c1C2=O)C[C@@](O)(C(=O)CO)C[C@@H]3O[C@H]1C[C@H](N)[C@H](O)[C@H](C)O1 [adriamycin, doxorubicin hydrochloride]
EC50 (MCF-7 cells [5]): 370 ± 10 nM | ceramide increase (MCF-7 wild-type cells [6]; 72 hours): 6 fold | sphingomyelin production (MCF-7 wild-type cells [6]; 72 hr): increased only slightly | apoptosis (DNA laddering) (MCF-7 wild-type cells [7]): gave rise to apoptosis | cell survival (MCF-7-AdrR cells [3]; adriamycin 0.2 μM alone, 5-days): 90% | cell survival, % of control (MCF-7-AdrR cells [3]; adriamycin 0.1-1.0 μM, 5-days): 80-95 % of control | inhibition at 2.5 µM (MCF-7-AdrR cells [8]): 23% | GC levels (MCF-7 cells [9]; 24 and 48 hr): little impact | ceramide level increase (MCF-7 cells [9]; 24 hr): 3.4 fold | ceramide level increase (MCF-7 cells [9]; 48 hr): 3 fold | ceramide level, increase over control (MCF-7-AdrR cells [4]): not influenced | GC level increase (MCF-7/GCS cells; 24 hr): 1.4 fold | ceramide level increase (MCF-7/GCS cells; 24 hr): 1.4 fold | GC level increase (MCF-7/GCS cells; 48 hr): 2.1 fold | ceramide level increase (MCF-7/GCS cells; 48 hr): 1.2 fold
